Row | Structure (SMILES) | melting point
1 | COC(=O)[C@H](CC(=O)OC(C)(C)C)NC(=O)c1cccc(NC(=O)OCc2ccccc2)c1 | 115 to 116 °C
2 | CCOC(=O)/C=C1\CCOc2ccc([N+](=O)[O-])cc21 | 135 °C
3 | CN(Cc1cccc2c1CN(C1CCC(=O)NC1=O)C2=O)C(=O)Nc1cc(F)cc(F)c1 (centres undefined) | 228 to 230 °C
4 | CC(C)n1c(=O)nc(-c2ccc3c(c2)CCC3)c2cc3c(cc21)OCO3 | 73 to 75 °C
5 | CC[Si](CC)(CC)c1cccc2c1oc1c([Si](CC)(CC)CC)cccc12 | 59 to 61 °C
6 | Cc1cc(-c2cccc(Cl)c2C=O)ccc1F | 74 to 79 °C
7 | Cn1ncnc1COc1nc2c(cc1C(C)(C)C)nnn2-c1c(F)cccc1F | 105 to 108 °C
8 | COc1ccn2nc(SCc3ccccc3)nc2n1 | 126 to 128 °C
9 | N#CCNC(=O)c1ccc(Cl)c(Cl)c1 | 144 to 145 °C
10 | CC(=O)Nc1c(C)cc(OC(C)=O)c(C)c1C | 174 to 175 °C
11 | CCOC12CCC(=O)C3(C)Oc4c(OC)ccc5c4C31CCN(CCc1ccccc1)C2C5 (centres undefined) | 86 to 89 °C
12 | CC(C)(O)Cc1cccc(C(F)(F)F)c1 | 55 to 56 °C
13 | O=C(O)c1ccc(OC2CC2)cc1 | 153 to 155 °C
14 | O=C1C=C(CO)C(=O)N1 | 104 to 106 °C
15 | CCN(CC)S(=O)(=O)c1ccc2c(c1)S(=O)(=O)NC(C1CCCCC1)N2 (centres undefined) | 207 to 209 °C
16 | CC[C@H](C)[C@H](OCc1ccccc1)[C@H]1[C@H]([N+](=O)[O-])[C@H](C2CC2)N[C@@H]1C(=O)O | 159 to 161 °C
17 | Oc1ccc(Oc2ccc3ccccc3n2)cc1 | 177 °C
18 | Cc1cc(O)ccc1Oc1ccccc1 | 96 to 99 °C
19 | CN1CCN(Cc2cc(C(=O)c3cccs3)cc(C(C)(C)C)c2O)CC1 | 118 to 119 °C
20 | COc1c(C(C)(C)C)cc(COc2ccc(C=C3SC(=S)NC3=O)cc2)cc1C(C)(C)C | 213 to 218 °C
21 | CC12CC=C3C4=C(CCC3C1CCC2=O)CC1(CC4)OCCO1 (centres undefined) | 110 to 112 °C
22 | COc1c(F)cc(F)c(C(N)=O)c1F | 102 °C

Continued, values first:

Row | melting point | Structure (SMILES)
23 | 109 to 118 °C | Cc1cc(F)ccc1-c1ccc(S(=O)(=O)N2c3ccccc3CC2C(=O)NCCOc2ccc(C(=O)O)c(F)c2)cc1 (centres undefined)
24 | 124 to 125 °C | CC(C)(C)c1cc(-c2csc(CNC(=O)Cc3ccccc3)n2)cc(C(C)(C)C)c1O
25 | 131 to 133 °C | COC(=O)c1ccc2c(ccn2Cc2cccc(NC(=O)OC3CCCC3)c2)c1
26 | 205 to 206 °C | Cn1ncc(/C=C\C(=O)O)c1-c1ccc(F)cc1
27 | 200 to 201 °C | Nc1cc(-c2nnc(SCc3ccc(F)cc3)o2)ccn1
28 | 130 to 131 °C | C(=C\c1nc2ccccc2n1-c1ccccn1)/c1cccs1
29 | 98 to 99 °C | COc1ccc(N2CCN(c3c(C)c(C)c4c(c3C)C(OCc3ccccc3)C(C)(C)O4)CC2)cc1 (centres undefined)
30 | 177 to 178 °C | CC(=O)Nc1c(Cl)cnn(-c2ccccc2)c1=O
31 | 90 to 93 °C | C=CCOc1ccc(Cl)c2oc(Cc3ccc(OC)cc3)c(C)c12
32 | 221 to 222 °C | COC(=O)c1cc(C(=O)NC2CCCC2)c2cc(Cc3ccc(F)cc3)cnc2c1O
33 | 70 to 72 °C | O=C1NC(=O)C(c2ccc(OCCC3Oc4ccccc4N(Cc4cccc(Cl)c4)C3=O)cc2)S1 (centres undefined)
34 | 166 to 168 °C | N#CN=C(Nc1cccc(F)c1)NC(NC(=O)c1ccc(Cl)cc1)c1ccsc1 (centres undefined)
35 | 158 to 159 °C | Cc1nc(-n2ccn(Cc3ccc(F)cc3)c2=O)sc1C(=O)NCc1cccnc1
36 | 148 to 150 °C | Cc1cc(C)c2nc(C)n(Cc3ccc(NCC4CCN(C5CCOCC5)CC4)cc3)c2n1
37 | 159 to 161 °C | CC(C)n1c(/C=C/C=O)c(-c2ccc(F)cc2)c2ccccc2c1=O
38 | 166 to 168 °C | O=C(NC1CCCC1)c1ccc(-c2ccc3nnn(Cc4ccc5ncccc5c4)c3n2)cc1F
39 | 317 to 318 °C | CCCn1nc2c(N)nc3cnccc3c2c1CCNC(=O)c1ccc(F)cc1
